Strand notation (5' to 3'): a small letter for the sugar, then the base; units joined by * are phosphorothioate-linked, units joined directly phosphodiester-linked; [ ] holds rarer units or linkages, { } end groups; capitals alone tell only the bases. e = 2'-O-(2-methoxyethyl) (MOE); k = constrained ethyl (cEt); [5mC] = 5-methylcytosine; d = 2'-deoxy (DNA)
Legend:
human PKK mRNA [1] = assay: Antisense inhibition of human PKK mRNA in HepaRG cells, 1,000 nM, MOE/deoxy/cEt oligonucleotides (Example 3); format: cell-based; conditions: HepaRG cells, electroporation with 1,000 nM antisense oligonucleotide, approximately 24 hours, primer probe set RTS3454, relative to untreated control cells
Summary of the method: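 Readout is percent PKK mRNA reduction against untreated controls, by real-time PCR (RTS3454) adjusted for total RNA via RIBOGREEN. Oligonucleotides, phosphorothioate gapmers of 16 nucleosides with cEt, MOE and deoxy sugars, were delivered at 1,000 nM by electroporation to 20,000 HepaRG cells/well for roughly 24 h.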

human PKK mRNA [2] = assay: Dose-dependent antisense inhibition of human PKK in HepaRG cells, 0.11-3.00 uM (Example 6); format: cell-based; conditions: for percent inhibition of PKK mRNA, 0.11 μM / percent inhibition of PKK mRNA, 0.33 μM / percent inhibition of PKK mRNA, 1.00 μM / percent inhibition of PKK mRNA, 3.00 μM: electroporation, approx. 16 hours, relative to untreated control cells; for IC50: 0.11-3.00 μM
Method: Cells were plated at a density of 20,000 cells per well and transfected using electroporation with 0.11 μM, 0.33 μM, 1.00 μM, and 3.00 μM concentrations of antisense oligonucleotide. After a treatment period of approximately 16 hours, RNA was isolated from the cells and PKK mRNA levels were measured by quantitative real-time PCR. Human PKK primer probe set RTS3454 was used to measure mRNA levels. PKK mRNA levels were adjusted according to total RNA content, as measured by RIBOGREEN®. The antisense oligonucleotides were tested in a series of experiments that had similar culture conditions.
The half maximal inhibitory concentration (IC50) of each oligonucleotide is also presented.

| Substance | % inhibition (human PKK mRNA [1]; experiment of Table 23) [%] | percent inhibition of PKK mRNA, 0.11 μM (human PKK mRNA [2]) [%] | percent inhibition of PKK mRNA, 0.33 μM (human PKK mRNA [2]) [%] | percent inhibition of PKK mRNA, 1.00 μM (human PKK mRNA [2]) [%] | percent inhibition of PKK mRNA, 3.00 μM (human PKK mRNA [2]) [%] | % inhibition (human PKK mRNA [1]; experiment of Table 24) [%] | IC50 (human PKK mRNA [2]) [nM] |
| --- | --- | --- | --- | --- | --- | --- | --- |
| 547948 (eA*eG*kG*dA*dA*d[5mC]*dT*dT*dG*dG*dT*dG*dT*kG*k[5mC]*e[5mC]; antisense) [compound 547948] | 77 | 60 | 80 | 88 | 97 | – | – |
| 547979 (antisense eG*eT*k[5mC]*dT*d[5mC]*dT*dT*dG*dG*d[5mC]*dA*dA*dA*k[5mC]*kA*eT) [compound 547979] | 77 | 56 | 58 | 94 | 97 | – | – |
| 547997 (antisense eT*eT*kG*dT*dG*dT*d[5mC]*d[5mC]*d[5mC]*dA*dT*dA*d[5mC]*kG*k[5mC]*eA) [compound 547997] | – | 39 | 68 | – | 82 | 89 | 200 |
| 547998 (antisense e[5mC]*eT*kT*dG*dT*dG*dT*d[5mC]*d[5mC]*d[5mC]*dA*dT*dA*k[5mC]*kG*e[5mC]) [compound 547998] | – | 55 | 73 | 91 | 91 | 82 | – |
| 548004 (eA*eG*kT*dA*dA*d[5mC]*d[5mC]*dA*dG*dA*dG*d[5mC]*dT*k[5mC]*k[5mC]*e[5mC]; antisense) [compound 548004] | – | 24 | 47 | 80 | 92 | 80 | 300 |
| 548005 (eA*eG*kA*dG*dT*dA*dA*d[5mC]*d[5mC]*dA*dG*dA*dG*k[5mC]*kT*e[5mC]; antisense) [compound 548005] | – | 53 | 49 | 71 | 95 | 77 | 400 |
| 548010 (eA*eG*kT*dG*dT*dT*dA*d[5mC]*dA*d[5mC]*dA*dA*dT*k[5mC]*kT*e[5mC]; antisense) [compound 548010] | – | 0 | 11 | 49 | 64 | 80 | 1400 |
| 548024 (eG*e[5mC]*kT*dG*dT*d[5mC]*dA*dG*d[5mC]*dT*dT*d[5mC]*dA*k[5mC]*k[5mC]*eT; antisense) [compound 548024] | – | 28 | 57 | 84 | 82 | 79 | 300 |
| 548043 (eA*eT*kT*dT*dG*dT*dG*dA*dG*dA*dA*dA*dG*kG*kT*eG; antisense) [compound 548043] | – | 14 | 60 | 90 | 92 | 76 | 300 |
| 548046 (eT*eA*kT*d[5mC]*dA*dT*dG*dA*dT*dT*d[5mC]*d[5mC]*d[5mC]*kT*kT*e[5mC]; antisense) [compound 548046] | – | 7 | 35 | 64 | 77 | 84 | 700 |
| 548047 (eG*eA*kT*dA*dT*d[5mC]*dA*dT*dG*dA*dT*dT*d[5mC]*k[5mC]*k[5mC]*eT; antisense) [compound 548047] | – | 50 | 62 | 76 | 95 | 83 | – |
| 548055 (eG*eT*kA*dA*dT*dT*d[5mC]*dA*dA*dA*dG*dG*dA*kG*k[5mC]*e[5mC]; antisense) [compound 548055] | – | 43 | 57 | 50 | 88 | 78 | 300 |
